US20090311217A1, “3-SUBSTITUTED-1H-INDOLE COMPOUNDS, THEIR USE AS MTOR KINASE AND PI3 KINASE INHIBITORS, AND THEIR SYNTHESES” (priority 2008, published 2009)
Where two headings read alike, the source gives them in different places.

What was measured:
Assay type in all cases: biochemical
PI3K-alpha = PI3K-alpha (Homo sapiens, UniProt P42336); experiment: PI3K-alpha fluorescence polarization assay
PI3K-gamma = PI3K-gamma (Homo sapiens, UniProt P48736); experiment: PI3K-gamma fluorescence polarization assay; conditions: PI3Kγ Avg. IC50
Summary of the method: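 FP competition read-out: PIP3 produced displaces BODIPY-TMR-IP4 (5 nM) from GST-GRP1 PH domain (100 nM). Kinase step: 5 ng enzyme, 2.5 μM diC8-PIP2, 25 μM ATP, pH 7 HEPES/MgCl2, 1 h, 25° C; EDTA stop.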

human TOR = molecular target: T1, human TOR (Homo sapiens, UniProt P42345); experiment: mTOR enzyme assay (DELFIA, His6-S6K substrate); conditions: read-out: mTOR Kinase Avg. IC50
T1 construct: FLAG

PI3K-alpha, sequence (P42336 whole entry, species assumed): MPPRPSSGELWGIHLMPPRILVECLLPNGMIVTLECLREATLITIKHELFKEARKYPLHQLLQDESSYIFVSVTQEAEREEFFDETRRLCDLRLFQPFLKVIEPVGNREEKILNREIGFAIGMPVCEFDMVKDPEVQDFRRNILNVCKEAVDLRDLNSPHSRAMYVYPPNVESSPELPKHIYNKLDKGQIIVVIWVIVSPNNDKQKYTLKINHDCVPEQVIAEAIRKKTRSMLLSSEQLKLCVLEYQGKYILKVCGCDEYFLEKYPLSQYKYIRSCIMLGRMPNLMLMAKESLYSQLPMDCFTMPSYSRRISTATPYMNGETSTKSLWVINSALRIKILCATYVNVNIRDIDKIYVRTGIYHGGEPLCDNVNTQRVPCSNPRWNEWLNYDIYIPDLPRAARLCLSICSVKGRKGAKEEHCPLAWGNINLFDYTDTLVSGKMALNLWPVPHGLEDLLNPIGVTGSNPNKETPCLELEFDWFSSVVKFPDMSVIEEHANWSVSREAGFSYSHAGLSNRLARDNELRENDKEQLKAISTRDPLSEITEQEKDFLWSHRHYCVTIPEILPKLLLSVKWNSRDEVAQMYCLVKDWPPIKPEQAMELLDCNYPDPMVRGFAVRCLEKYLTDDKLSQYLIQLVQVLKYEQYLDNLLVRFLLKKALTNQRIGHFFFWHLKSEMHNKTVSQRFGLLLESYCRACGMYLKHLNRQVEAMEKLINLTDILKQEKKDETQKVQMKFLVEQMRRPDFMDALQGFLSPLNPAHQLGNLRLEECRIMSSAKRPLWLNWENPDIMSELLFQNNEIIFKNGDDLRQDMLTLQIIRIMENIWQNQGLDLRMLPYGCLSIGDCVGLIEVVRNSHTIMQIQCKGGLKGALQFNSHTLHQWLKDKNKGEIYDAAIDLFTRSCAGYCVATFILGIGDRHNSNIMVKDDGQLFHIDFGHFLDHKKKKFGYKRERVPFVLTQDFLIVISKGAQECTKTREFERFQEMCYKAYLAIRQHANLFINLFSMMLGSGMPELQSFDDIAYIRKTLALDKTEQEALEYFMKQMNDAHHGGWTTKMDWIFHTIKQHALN
PI3K-alpha, sequence (P27986 whole entry partner, species assumed): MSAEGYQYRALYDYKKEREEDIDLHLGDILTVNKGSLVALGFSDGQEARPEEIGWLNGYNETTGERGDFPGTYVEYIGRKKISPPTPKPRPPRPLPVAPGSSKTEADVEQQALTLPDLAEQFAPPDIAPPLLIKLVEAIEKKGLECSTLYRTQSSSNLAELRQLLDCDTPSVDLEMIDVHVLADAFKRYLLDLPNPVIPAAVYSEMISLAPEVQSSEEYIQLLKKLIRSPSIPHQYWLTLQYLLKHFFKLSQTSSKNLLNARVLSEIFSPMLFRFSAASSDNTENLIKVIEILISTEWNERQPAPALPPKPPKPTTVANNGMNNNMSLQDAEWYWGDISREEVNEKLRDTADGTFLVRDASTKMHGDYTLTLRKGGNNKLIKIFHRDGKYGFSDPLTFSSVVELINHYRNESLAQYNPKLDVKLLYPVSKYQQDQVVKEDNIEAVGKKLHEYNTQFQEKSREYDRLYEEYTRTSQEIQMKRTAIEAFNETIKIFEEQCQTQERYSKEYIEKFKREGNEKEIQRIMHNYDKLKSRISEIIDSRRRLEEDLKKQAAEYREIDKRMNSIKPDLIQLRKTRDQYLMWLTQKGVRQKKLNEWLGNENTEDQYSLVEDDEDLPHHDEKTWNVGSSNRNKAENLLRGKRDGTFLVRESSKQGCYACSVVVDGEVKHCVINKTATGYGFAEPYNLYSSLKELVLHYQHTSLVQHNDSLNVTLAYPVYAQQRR
PI3K-gamma, sequence (P48736 whole entry, species assumed, the tested form may be a part): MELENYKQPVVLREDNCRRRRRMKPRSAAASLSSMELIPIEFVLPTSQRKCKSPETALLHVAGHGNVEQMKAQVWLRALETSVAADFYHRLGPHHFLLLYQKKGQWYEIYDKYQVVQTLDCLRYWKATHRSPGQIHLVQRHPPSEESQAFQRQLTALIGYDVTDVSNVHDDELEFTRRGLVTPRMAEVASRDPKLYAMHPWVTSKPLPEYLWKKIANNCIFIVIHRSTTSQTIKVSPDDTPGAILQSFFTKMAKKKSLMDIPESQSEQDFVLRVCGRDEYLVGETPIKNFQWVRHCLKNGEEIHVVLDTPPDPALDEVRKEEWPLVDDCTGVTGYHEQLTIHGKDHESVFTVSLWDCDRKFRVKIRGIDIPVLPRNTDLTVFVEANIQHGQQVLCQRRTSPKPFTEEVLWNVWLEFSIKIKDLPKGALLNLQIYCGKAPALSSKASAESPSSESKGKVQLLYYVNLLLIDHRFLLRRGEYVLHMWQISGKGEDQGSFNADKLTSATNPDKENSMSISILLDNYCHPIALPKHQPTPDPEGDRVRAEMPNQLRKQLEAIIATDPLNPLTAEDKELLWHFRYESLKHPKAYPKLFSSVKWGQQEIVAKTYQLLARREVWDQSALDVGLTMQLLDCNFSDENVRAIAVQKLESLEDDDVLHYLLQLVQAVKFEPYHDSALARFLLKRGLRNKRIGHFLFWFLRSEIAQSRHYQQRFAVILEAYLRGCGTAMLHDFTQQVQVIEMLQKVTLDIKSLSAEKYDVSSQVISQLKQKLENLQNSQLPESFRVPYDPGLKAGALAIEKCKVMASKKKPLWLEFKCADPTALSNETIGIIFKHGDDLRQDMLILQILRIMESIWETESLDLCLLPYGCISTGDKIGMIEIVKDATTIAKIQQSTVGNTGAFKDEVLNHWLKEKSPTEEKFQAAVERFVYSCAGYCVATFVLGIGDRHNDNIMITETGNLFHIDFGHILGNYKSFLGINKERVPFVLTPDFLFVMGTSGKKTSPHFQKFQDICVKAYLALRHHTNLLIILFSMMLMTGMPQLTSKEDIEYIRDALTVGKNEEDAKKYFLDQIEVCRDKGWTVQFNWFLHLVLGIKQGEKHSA

Row | Structure (SMILES) | IC50 (PI3K-alpha; read-out: PI3Kα Avg. IC50) [nM] | IC50 (PI3K-gamma) [nM] | IC50 (human TOR) [nM] | IC50 (PI3K-alpha; PI3Kα Avg. IC50) [nM]
1 | COc1ccc2[nH]c(C)c(C=C3Oc4c(ccc(O)c4O)C3=O)c2c1 [Example 69, 6,7-dihydroxy-2-[(5-methoxy-2-methyl-1H-indol-3-yl)methylene]-1-benzofuran-3(2H)-one] | 399 | 3500 | > 20000 | 
2 | COc1ccc2c(c1)c(/C=C1\Oc3cc(O)cc(C)c3C1=O)c(C1CC1)n2CCN1CCN(C)CC1 [Example 464, (2Z)-2-({2-Cyclopropyl-5-methoxy-1-[2-(4-methylpiperazin-1-yl)ethyl]-1H-indol-3-yl}methylene)-6-hydroxy-4-methyl-1-benzofuran-3(2H)-one] | 13.5 | 1450 | 37.5 | 
3 | O=C1C(=Cc2c(-c3cccc(O)c3)[nH]c3ccccc23)Oc2cc(O)cc(O)c21 [Example 205, 4,6-dihydroxy-2-{[2-(3-hydroxyphenyl)-1H-indol-3-yl]methylene}-1-benzofuran-3(2H)-one] | 479 | 2370 | 110 | 
4 | CN(C)C(=O)Nc1ccc(-c2cccc3c2c(/C=C2\Oc4cc(O)cc(O)c4C2=O)cn3C)cc1 [Example 394, 3-(4-{3-[(Z)-(4,6-dihydroxy-3-oxo-1-benzofuran-2(3H)-ylidene)methyl]-1-methyl-1H-indol-4-yl}phenyl)-1,1-dimethylurea] | 460 | 4120 | 69 | 
5 | COc1ccc2c(c1)c(/C=C1\Oc3cc(O)cc(O)c3C1=O)c(C1CCC1)n2CCN1CCN(C)CC1 [Example 446, (2Z)-2-({2-Cyclobutyl-5-methoxy-1-[2-(4-methylpiperazin-1-yl)ethyl]-1H-indol-3-yl}methylene)-4,6-dihydroxy-1-benzofuran-3(2H)-one] | 3.5 | 81 | 3.75 | 
6 | CCn1c(C2CCCCC2)c(/C=C2\Oc3ccc(NC(=O)Nc4ccc(C(=O)N5CCN(C)CC5)cc4)cc3C2=O)c2cc(OC)ccc21 [Compound 645, 1-{(2Z)-2-[(2-cyclohexyl-1-ethyl-5-methoxy-1H-indol-3-yl)methylene]-3-oxo-2,3-dihydro-1-benzofuran-5-yl}-3-{4-[(4-methylpiperazin-1-yl)carbonyl]phenyl}urea] | 1.8 | 55 | 185 | 
7 | CNC(=O)Nc1ccc2c(c1)C(=O)/C(=C/c1c(-c3c(C)n[nH]c3C)[nH]c3ccc(OC)cc13)O2 [Compound 625, 1-[(2Z)-2-{[2-(3,5-dimethyl-1H-pyrazol-4-yl)-5-methoxy-1H-indol-3-yl]methylidene}-3-oxo-2,3-dihydro-1-benzofuran-5-yl]-3-methylurea] | 0.2 | 4.7 | 1 | 
8 | COc1cc(F)c2[nH]c(-c3c(C)nn(C)c3C)c(/C=C3\Oc4ccc(NC(=O)Nc5ccc(C(=O)N6CCN(C)C(C)C6)cc5)cc4C3=O)c2c1 (stereo not drawn) [Compound 730, 1-{4-[(3,4-dimethylpiperazin-1-yl)carbonyl]phenyl}-3-[(2Z)-2-{[7-fluoro-5-methoxy-2-(1,3,5-trimethyl-1H-pyrazol-4-yl)-1H-indol-3-yl]methylidene}-3-oxo-2,3-dihydro-1-benzofuran-5-yl]urea] | 0.65 | 1.9 | 3 | 
9 | Cn1c(-c2ccc(Cl)cc2)c(C=C2Oc3cc(O)cc(O)c3C2=O)c2ccccc21 [Example 201, 2-{[2-(4-chlorophenyl)-1-methyl-1H-indol-3-yl]methylene}-4,6-dihydroxy-1-benzofuran-3(2H)-one] | 712 | 5460 | 120 | 
10 | COc1ccc2c(c1)c(/C=C1\Oc3cc(O)cc(O)c3C1=O)c(C(=O)N1CCCC1)n2CCN1CCN(C)CC1 [Example 430, (2Z)-4,6-Dihydroxy-2-({5-methoxy-1-[2-(4-methylpiperazin-1-yl)ethyl]-2-(pyrrolidin-1-ylcarbonyl)-1H-indol-3-yl}methylene)-1-benzofuran-3(2H)-one] | 7.5 | 197 | 115 | 
11 | CC(=O)Nc1ccc(-c2cccc3c2c(/C=C2\Oc4cc(O)cc(O)c4C2=O)cn3C)cc1 [Example 383, N-(4-{3-[(Z)-(4,6-Dihydroxy-3-oxo-1-benzofuran-2(3H)-ylidene)methyl]-1-methyl-1H-indol-4-yl}phenyl)acetamide] | 750 | 2250 | 12.3 | 
12 | O=C1C(=Cc2c[nH]c3ccc(I)cc23)Oc2cc(O)cc(O)c21 [Example 177, 4,6-dihydroxy-2-[(5-iodo-1H-indol-3-yl)methylene]-1-benzofuran-3(2H)-one] | 187 | 3360 | 9100 | 
13 | CN1CCN(c2cccc3c2c(/C=C2\Oc4cc(O)cc(O)c4C2=O)cn3C)CC1 [Example 439, (2Z)-4,6-dihydroxy-2-{[1-methyl-4-(4-methylpiperazin-1-yl)-1H-indol-3-yl]methylene}-1-benzofuran-3(2H)-one] | 4280 | > 10000 | 33.8 | 
14 | CNC(=O)Nc1ccc2c(c1)C(=O)/C(=C/c1c(-c3c(C)nn(CCN(C)C)c3C)[nH]c3ccc(OC)cc13)O2 [Compound 705, 1-{(2Z)-2-[(2-{1-[2-(dimethylamino)ethyl]-3,5-dimethyl-1H-pyrazol-4-yl}-5-methoxy-1H-indol-3-yl)methylidene]-3-oxo-2,3-dihydro-1-benzofuran-5-yl}-3-methylurea] | 5.5 | 25.5 | 26 | 
15 | COc1cc(F)c2[nH]c(-c3c(C)nn(C)c3C)c(/C=C3\Oc4ccc(NC(=O)Nc5ccc(C(=O)N6CCN(CCO)CC6)cc5)cc4C3=O)c2c1 [Compound 721, 1-[(2Z)-2-{[7-fluoro-5-methoxy-2-(1,3,5-trimethyl-1H-pyrazol-4-yl)-1H-indol-3-yl]methylidene}-3-oxo-2,3-dihydro-1-benzofuran-5-yl]-3-(4-{[4-(2-hydroxyethyl)piperazin-1-yl]carbonyl}phenyl)urea] | 0.6 | 2.25 | 1 | 
16 | COc1ccc2[nH]c(-c3c(C)nn(C)c3C)c(/C=C3\Oc4ccc(NC(=O)Nc5ccc(C(=O)N6CCC(N(C)C)C6)cc5)cc4C3=O)c2c1 (stereo not drawn) [Compound 697, 1-(4-{[3-(dimethylamino)pyrrolidin-1-yl]carbonyl}phenyl)-3-[(2Z)-2-{[5-methoxy-2-(1,3,5-trimethyl-1H-pyrazol-4-yl)-1H-indol-3-yl]methylidene}-3-oxo-2,3-dihydro-1-benzofuran-5-yl]urea] | 0.25 | 1.4 | 1 | 
17 | COc1ccc2[nH]c(-c3c(C)nn(C)c3C)c(/C=C3\Oc4ccc(NC(=O)Nc5ccc(C(=O)N6CCC(N(C)C)CC6)cc5)cc4C3=O)c2c1 [Compound 702, 1-(4-{[4-(dimethylamino)piperidin-1-yl]carbonyl}phenyl)-3-[(2Z)-2-{[5-methoxy-2-(1,3,5-trimethyl-1H-pyrazol-4-yl)-1H-indol-3-yl]methylidene}-3-oxo-2,3-dihydro-1-benzofuran-5-yl]urea] | 0.3 | 3 | 1 | 
18 | CCn1c(C)c(/C=C2\Oc3ccc(NC(=O)Nc4ccc(S(=O)(=O)N(C)CCN(C)C)cc4)cc3C2=O)c2cc(OC)ccc21 [Compound 679, N-[2-(dimethylamino)ethyl]-4-[({(2Z)-2-[(1-ethyl-5-methoxy-2-methyl-1H-indol-3-yl)methylidene]-3-oxo-2,3-dihydro-1-benzofuran-5-yl}carbamoyl)amino]-N-methylbenzenesulfonamide] | 8 | 67.5 | 370 | 
19 | CNC(=O)Nc1ccc2c(c1)C(=O)/C(=C/c1c(-c3c(C)nn(C)c3C)[nH]c3c(F)cc(OC)cc13)O2 [Compound 693, 1-[(2Z)-2-{[7-fluoro-5-methoxy-2-(1,3,5-trimethyl-1H-pyrazol-4-yl)-1H-indol-3-yl]methylidene}-3-oxo-2,3-dihydro-1-benzofuran-5-yl]-3-methylurea] | 0.75 | 5.07 | < 1 | 
20 | COc1ccc2c(c1)c(/C=C1\Oc3cc(O)cc(O)c3C1=O)cn2CCn1ccnc1 [Example 312, (2Z)-4,6-Dihydroxy-2-({1-[2-(1H-imidazol-1-yl)ethyl]-5-methoxy-1H-indol-3-yl}methylene)-1-benzofuran-3(2H)-one] | 9.5 | 81.5 | 152 | 
21 | CC(C)Cn1c(-c2ccccc2)c(C=C2Oc3cc(O)cc(O)c3C2=O)c2ccccc21 [Example 150, 4,6-dihydroxy-2-[(1-isobutyl-2-phenyl-1H-indol-3-yl)methylene]-1-benzofuran-3(2H)-one] | 2230 | 2190 | 6450 | 
22 | COc1ccc2c(c1)c(/C=C1\Oc3cc(O)cc(O)c3C1=O)c(C1CCCCC1)n2CCN1CCN(C)CC1 [Example 447, (2Z)-2-({2-Cyclohexyl-5-methoxy-1-[2-(4-methylpiperazin-1-yl)ethyl]-1H-indol-3-yl}methylene)-4,6-dihydroxy-1-benzofuran-3(2H)-one] | 1.7 | 105 | 1.3 | 
23 | O=C1/C(=C/c2c(-c3ccc(Cl)cc3)[nH]c3ccccc23)Oc2cc(O)cc(O)c21 [Example 44, (2Z)-2-{[2-(4-chlorophenyl)-1H-indol-3-yl]methylene}-4,6-dihydroxy-1-benzofuran-3(2H)-one] |  | 1460 | 190 | 542
24 | COc1ccc2c(c1)c(/C=C1\Oc3cc(O)ccc3C1=O)c(C)n2CCN1CCCC1 [Example 452, (2Z)-6-Hydroxy-2-{[5-methoxy-2-methyl-1-(2-pyrrolidin-1-ylethyl)-1H-indol-3-yl]methylene}-1-benzofuran-3(2H)-one] | 49.5 | 990 | 1950 | 
